Data published in article PMC12389586, “Anticancer Activity of Paclitaxel-Loaded Mesoporous Silica Nanoparticles in B16F10 Melanoma-Bearing Mice” (Pharmaceutics, 2025).

Tests used:
B16F10 spheroids = assay: Cytotoxicity and PTX accumulation in 3D cultured spheroid; type: cell-based; settings: for spheroid growth / radius: 5 days, PTX 25 µg/mL or equivalent, CUR 200 µg/mL, TPGS 600 µg/mL, SMB7 200 µg/mL
Protocol: B16F10 cells were seeded at a density of 3 × 10^5 cells per well in an ultra-low attachment 96-well plate to facilitate spheroid formation. Immediately after seeding, the plate was centrifuged at […] for 15 min to promote cell aggregation. Following centrifugation, the spheroids were allowed to stabilize for 24 h before drug treatment. The spheroids were treated with the following conditions and grown for 5 days: control, 200 μg/mL of SMB7, 200 μg/mL of curcumin, 25 μg/mL of PTX, PS (equivalent to 25 μg/mL PTX), PS with curcumin (equivalent to 25 μg/mL PTX + 200 μg/mL curcumin), and PS with TPGS (equivalent to 25 μg/mL PTX + 600 μg/mL TPGS).
During the culture period, the spheroid radius was measured daily to assess tumor growth inhibition across different treatment groups. After five days, the spheroids were harvested, disrupted into a single-cell suspension, and analyzed for intracellular PTX and curcumin concentrations using LC–MS/MS. Additionally, the culture medium was collected from each well and analyzed to quantify the remaining extracellular concentrations of PTX and curcumin, providing further insights into drug uptake and retention within the spheroids.

β-tubulin = assay: Confocal staining of β-tubulin and nuclei; type: cell-based; settings: B16F10 cells, 24 h; PTX 25 µg/mL or equivalent, CUR 200 µg/mL, TPGS 600 µg/mL, SMB7 200 µg/mL
Protocol: B16F10 cells were seeded at a density of 4 × 10^4 cells per well in a 24-well plate and cultured until a confluency of 80% was reached. Once the desired confluency was achieved, the culture medium was replaced with fresh media containing the following respective treatments: control, 200 μg/mL of SMB7, 200 μg/mL of curcumin, 25 μg/mL of PTX, PS (equivalent to 25 μg/mL PTX), PS with curcumin (equivalent to 25 μg/mL PTX + 200 μg/mL curcumin), and PS with TPGS (equivalent to 25 μg/mL PTX + 600 μg/mL TPGS).
Cells were incubated post-treatment for 24 h and then fixed and stained to visualize intracellular structures. DAPI was used for DNA staining to highlight nuclear morphology, and goat anti-Mouse IgG conjugated with FSD 594 was employed for β-tubulin staining to observe microtubule organization. As PTX primarily acts by stabilizing microtubules, fluorescence images were acquired using an LSM700 confocal laser scanning microscope (Carl Zeiss GmbH, Oberkochen, Germany). Confocal images were acquired at 100 × magnification to enhance the visualization of DNA and β-tubulin structures, enabling the assessment of PTX-induced cytoskeletal disruption and apoptosis-related nuclear changes.

[1] = In vitro drug release test (dialysis pouch); type: physicochemical; settings: over 48 h; SBF pH 7.4, release medium SBF + 0.5% Tween 80
Protocol: The in vitro drug release of PTX from the formulation was measured as follows: PTX and PS (all containing 2 mg PTX) were placed in the cellulose membrane pouch (Snakeskin^TM Dialysis Tubing 10,000 MWCO; Thermo Fisher Scientific Inc.; Waltham, MA, USA), and 5 mL of SBF (pH 7.4) was added inside the cellulose membrane pouch. The cellulose membrane pouch was put into 50 mL of SBF containing 0.5% Tween 80 in a 250 mL beaker and shaken at 100 rpm in a dual-motion shaker (Finepcr; Gunpo-si, Republic of Korea). Samples (100 μL aliquots) were collected for 48 h, and then diluted 100-fold with mobile phase and injected into the LC-MS/MS system to measure the PTX concentration.
In this study, PS in 5 mL SBF was placed in a dialysis pouch, while the exterior release medium consisted of 50 mL of SBF + 0.5% Tween 80. This large external volume and surfactant content allowed the PTX released from the pouch to diffuse into the external medium and remain dissolved.

B16F10 cells [2] = assay: Cell viability (MTT assay); type: cell-based; settings: Mus musculus, B16-F10, 48 h exposure, 0–1000 nM PTX or equivalent
Protocol: B16F10 cells were seeded at a density of 4 × 10^4 cells per well in a 96-well plate and incubated at 37 °C in a 5% CO2 atmosphere for 24 h to allow cell attachment and stabilization before drug administration. After 24 h, the medium was replaced with fresh culture media containing various PTX formulations (i.e., PTX, PS, PS with CUR, PS with TPGS, and PS with verapamil) at increasing concentrations (0, 10, 20, 50, 100, 200, 500, and 1000 nM) of PTX or its equivalent amount.
After 48 h of drug exposure, MTT reagent (0.5 mg/mL in PBS, 15 μL) was added to each well, followed by an additional 4 h incubation to allow mitochondrial dehydrogenase enzymes in viable cells to reduce MTT into insoluble formazan crystals. The resulting formazan was then solubilized using 150 μL DMSO, and the absorbance was measured at 592 nm using an ultraviolet (UV) spectrophotometer. Cell viability was calculated relative to the untreated control group. Data were fitted using the inhibitory effect model v=Emax(1−[I]/IC50+[I]) . Emax and IC50 represent uninhibited cell viability (%) and the concentration of PTX (nM) at which half-maximal inhibition occurs. [I] represents the concentration of PTX.

B16F10 cells [3] = assay: Apoptosis analysis by flow cytometry (Annexin V); type: cell-based; settings: 24 h; equivalent to 25 μg/mL PTX (+200 μg/mL CUR, +600 μg/mL TPGS)
Protocol: B16F10 cells were seeded at a density of 8 × 10^4 cells in a cell culture dish and cultured until a confluency of 80% was reached. Upon reaching the desired confluency, the culture medium was aspirated and replaced with fresh medium containing one of the following treatments: control, PTX (25 μg/mL), PS (equivalent to 25 μg/mL PTX), PSC (equivalent to 25 μg/mL PTX + 200 μg/mL curcumin), and PSCT (equivalent to 25 μg/mL PTX + 200 μg/mL curcumin + 600 μg/mL TPGS).
After 24 h of treatment, the culture supernatant was collected into a 15 mL conical tube. Cells were then detached using 1.5 mL of trypsin, and the resulting cell suspension—including detached cells and debris—was combined with the previously collected medium in the same tube. The samples were centrifuged at 1000 rpm for 3 min, and the supernatant was carefully discarded. The cell pellet was resuspended in 1 mL of DMEM supplemented with 10% FBS and 1% penicillin–streptomycin. Subsequently, 100 μL of the Muse Annexin V and Dead Cell kit (Cytek Biosciences Inc., Fremont, CA, USA) was added to the cell suspension, and the samples were incubated at room temperature in the dark for 20 min. Apoptosis and cell viability were then assessed using the Guava® Muse® Cell Analyzer (Cytek Biosciences Inc., Fremont, CA, USA).

[4] = Biodistribution in B16F10 melanoma-bearing mice; type: in vivo, C57BL/6 mice; settings: C57BL/6, mouse, subcutaneous, heart, lung, kidney, pancreas, liver and tumor tissues, read-out: PTX tissue concentration relative to plasma
Protocol: After the final injection, the mice from PTX + CUR, PSC, and PSCT groups were randomly subdivided into two time points (n = 5 for each subgroup; 2 h and 8 h post-administration) for pharmacokinetic and biodistribution analyses. At the designated time points (0.25, 1, and 2 h from the 2 h group; 0.5, 4, and 8 h from the 8 h group), blood samples (approximately 80 µL) were collected from the retro-orbital plexus of mice. For the PTX and CUR analyses, 30 µL of plasma aliquots were stored at −80 °C. At 2 h, the mice were anesthetized, and the organs (heart, lung, liver, kidney, pancreas, and tumor) were harvested, weighed, and homogenized using a MM400 Laboratory Ball Mixer Mill (Retsch, Haan, Germany). Aliquots (50 µL) of 20% tissue homogenates prepared using 10% MeOH were stored at −80 °C for subsequent analyses. […]
The biodistribution of PTX in various mouse tissues was quantified and expressed as a percentage of the injected dose per gram of tissue (%ID/g). […] The following formula was used to calculate the drug concentration in the tissue, which is measured (e.g., ng), normalized to the total injected dose, and further corrected based on the weight of the harvested tissue to standardize drug accumulation across different organs as follows: %ID/g=Drug amount in each organmg/Injected Dose mg×100×1/Organ weight (g) .

[5] = after 5 days of treatment, equivalent to 25 μg/mL PTX

| drug release [1] [%] | IC50 (B16F10 cells [2]) [nM] | Kp at 2 h [4] | SMILES | spheroid growth / radius (B16F10 spheroids) | β-tubulin expression (microtubule integrity) (β-tubulin) | Incorporated PTX (B16F10 spheroids; [5]) [%] | PTX concentration (intracellular accumulation in spheroids) (B16F10 spheroids; [5]) [µg/mL] | early apoptosis (B16F10 cells [3]) [%] | late apoptosis (Late Apop./Dead) (B16F10 cells [3]) [%] | total apoptosis rate (B16F10 cells [3]) [%] |
| --- | --- | --- | --- | --- | --- | --- | --- | --- | --- | --- |
| – | – | – | COc1cc(/C=C/C(=O)CC(=O)/C=C/c2ccc(O)c(OC)c2)ccc1O [CUR, Curcumin] | significantly suppressed the tumor growth of B16F10 spheroids | moderate reduction in β-tubulin expression | – | – | – | – | – |
| 6.58 | 283 | > 100 | CC(=O)O[C@H]1C(=O)[C@@]2(C)[C@H]([C@H](OC(=O)c3ccccc3)[C@]3(O)C[C@H](OC(=O)[C@H](O)[C@@H](NC(=O)c4ccccc4)c4ccccc4)C(C)=C1C3(C)C)[C@]1(OC(C)=O)CO[C@@H]1C[C@@H]2O [PTX, Paclitaxel] | significantly suppressed the tumor growth of B16F10 spheroids | pronounced decrease in β-tubulin intensity | 20.3 | 5.09 ± 0.16 | 11.5 | 9.8 | 21.3 |
